The term IC50 denotes the midpoint of a concentration-inhibition curve.

IC50 data for nine compounds are collected here from US20110098304A1, “Small molecule inhibitors of PARP activity” (priority 2009, published 2011).

SMILES strings stand for the structures.

In this experiment the target is T1, human PARD-1 (Poly (ADP-Ribose) Polymerase-1) (Homo sapiens, UniProt P09874).
T1 construct: purchased Trevigen Inc., Gaithersburg, Md
T1 sequence (P09874 whole entry): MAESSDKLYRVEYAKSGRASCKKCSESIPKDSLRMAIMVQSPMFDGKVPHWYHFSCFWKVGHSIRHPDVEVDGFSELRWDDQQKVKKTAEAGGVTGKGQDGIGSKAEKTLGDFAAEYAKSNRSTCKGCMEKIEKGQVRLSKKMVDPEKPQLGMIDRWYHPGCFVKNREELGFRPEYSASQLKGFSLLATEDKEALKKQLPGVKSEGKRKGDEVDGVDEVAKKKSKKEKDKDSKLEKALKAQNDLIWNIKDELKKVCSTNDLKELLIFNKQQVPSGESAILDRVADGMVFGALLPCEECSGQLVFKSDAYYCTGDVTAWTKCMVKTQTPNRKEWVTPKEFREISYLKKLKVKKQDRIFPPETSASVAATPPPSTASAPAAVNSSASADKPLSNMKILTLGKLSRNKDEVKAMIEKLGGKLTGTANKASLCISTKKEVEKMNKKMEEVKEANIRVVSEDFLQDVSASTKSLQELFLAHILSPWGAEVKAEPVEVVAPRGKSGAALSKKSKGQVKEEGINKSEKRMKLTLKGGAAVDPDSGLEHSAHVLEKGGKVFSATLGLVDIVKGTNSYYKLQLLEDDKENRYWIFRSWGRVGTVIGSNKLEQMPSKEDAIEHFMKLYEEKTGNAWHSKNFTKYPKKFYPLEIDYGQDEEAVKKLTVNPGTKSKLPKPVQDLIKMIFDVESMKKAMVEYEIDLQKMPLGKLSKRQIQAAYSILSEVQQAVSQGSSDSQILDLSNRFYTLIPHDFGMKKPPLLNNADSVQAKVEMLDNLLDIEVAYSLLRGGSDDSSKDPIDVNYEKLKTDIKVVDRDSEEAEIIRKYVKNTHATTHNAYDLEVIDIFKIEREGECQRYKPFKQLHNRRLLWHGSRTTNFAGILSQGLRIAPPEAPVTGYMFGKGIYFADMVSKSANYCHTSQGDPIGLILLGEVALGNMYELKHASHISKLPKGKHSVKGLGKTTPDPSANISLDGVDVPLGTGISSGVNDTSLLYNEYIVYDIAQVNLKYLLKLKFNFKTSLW
The experiment is described as follows: Poly (ADP-Ribose) Polymerase-1 in vitro enzyme assay (Universal Colorimetric Assay Kit, Trevigen). Type of experiment: biochemical. Particulars: letter codes; read-out: extent of inhibition of PARP activity (IC50, micromolar). Here is the method: Poly (ADP-Ribose) Polymerase-1 (PARD-1) In Vitro Enzyme Assay: Compounds were screened for inhibitory activity against human PARD-1 in vitro using the Universal Colorimetric PARD Assay Kit (Trevigen Inc., Gaithersburg, Md.) as directed by the supplier. Compounds are assayed in duplicate in 0.5% DMSO final concentration, negative control is no enzyme, while positive control is DMSO vehicle alone. IC50 determinations are made using Microsoft Excel. For all cell assays, compounds are added to cells in 5% DMSO/PBS for a final concentration of 0.5% DMSO.
Regarding `Nc1cc(-c2n[nH]c(=O)c3ccccc23)ccc1N1CCN(Cc2cccnc2)CC1` [4-(3-amino-4-(4-(pyridin-3-ylmethyl)piperazin-1-yl)phenyl)phthalazin-1(2H)-one], the half-maximal inhibitory concentration (IC50) fell in the range of 0.001 to 0.1 µM.

For `CN1CCN(c2ccc(-c3n[nH]c(=O)c4ccccc34)cc2NC(=O)NC(C)(C)C)CC1` [1-tert-butyl-3-(2-(4-methylpiperazin-1-yl)-5-(4-oxo-3,4-dihydrophthalazin-1-yl)phenyl)urea], the 50% inhibitory concentration (IC50) fell in the range of 0.1 to 1 µM.

Take `CCNC(=O)Nc1cc(-c2n[nH]c(=O)c3ccccc23)ccc1N1CCN(C)CC1` [1-ethyl-3-(2-(4-methylpiperazin-1-yl)-5-(4-oxo-3,4-dihydrophthalazin-1-yl)phenyl)urea]: the IC50 was in the range of 1 to 5 µM.

For `Nc1cc(-c2n[nH]c(=O)c3ccccc23)ccc1N1CCN(CC2CCCCC2)CC1` [4-(3-amino-4-(4-(cyclohexylmethyl)piperazin-1-yl)phenyl)phthalazin-1(2H)-one], the IC50 was in the range of 0.001 to 0.1 µM.

Take `CC(C)N1CCN(c2ccc(-c3n[nH]c(=O)c4ccccc34)cc2N)CC1` [4-(3-amino-4-(4-isopropylpiperazin-1-yl)phenyl)phthalazin-1(2H)-one]: the IC50 lay within 0.001 to 0.1 µM.

Turning to `CC(=O)Nc1cc(-c2n[nH]c(=O)c3ccccc23)ccc1N1CCN(C(C)(C)C)CC1` [N-(2-(4-tert-butylpiperazin-1-yl)-5-(4-oxo-3,4-dihydrophthalazin-1-yl)phenyl)acetamide], the IC50 lay in the range of 1 to 5 µM.

Regarding `CC(C)(C)N1CCN(c2ccc(-c3n[nH]c(=O)c4ccccc34)cc2N)CC1` [4-(3-amino-4-(4-tert-butylpiperazin-1-yl)phenyl)phthalazin-1(2H)-one], the IC50 is 0.001 to 0.1 µM.

For the compound `CCN1CCN(c2ccc(-c3n[nH]c(=O)c4ccccc34)cc2NC(=O)C(C)(C)C)CC1` [N-(2-(4-ethylpiperazin-1-yl)-5-(4-oxo-3,4-dihydrophthalazin-1-yl)phenyl)pivalamide], the IC50 is greater than 5 µM.

Regarding `CNC(=O)Nc1cc(-c2n[nH]c(=O)c3ccccc23)ccc1N1CCN(C)CC1` [1-methyl-3-(2-(4-methylpiperazin-1-yl)-5-(4-oxo-3,4-dihydrophthalazin-1-yl)phenyl)urea], the IC50 was 0.1 to 1 µM.
